From patent US8551978B2 (Theravance, Inc., priority 2009, dated 2013) come the findings set out here.

pEC50, pKi: −log10 of the molar value. Structures can show the parent of a compound that is named as a salt. Where two headings read alike, the source gives them in different places.

One assay has as its target hβ2 adrenergic receptor (Homo sapiens (Human), UniProt P07550). As to the kind of experiment: Assay for determining adrenergic receptor agonist potency (cAMP Flashplate, HEK-293 cells). The format is cell-based. The settings on record: data rounded to nearest 1 nM.
In assay [1] the test system is MCh-induced bronchoconstriction. As to the kind of experiment: Einthoven assay: bronchoprotection against methacholine (MCh)-induced bronchoconstriction. The settings on record: for inhibition in vivo at 0.1 mg: inhaled or nasal, read-out: Broncho. at 24 h. The format is in vivo, rat. In short, it runs like this:
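Male Sprague-Dawley rats received 100 μg compound (unless stated) or water vehicle by 10-min inhalation. At set times, anesthetized, ventilated rats were challenged with IV MCh at 40 and 80 μg/kg (2.5-min infusions). Ventilation-pressure rise is expressed as % inhibition versus vehicle controls.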

The target of the next assay is hM3 muscarinic receptor (Homo sapiens (Human), UniProt P20309). As to the kind of experiment: Radioligand binding assay for muscarinic receptors ([3H]-NMS displacement, CHO cell membranes). In short, it runs like this: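 [3H]-NMS displacement used homogenized CHO membranes, with test compounds at final concentrations of […]. Plates were incubated 6 hours at 37 °C, then filtered and read by liquid scintillation counting. A one-site competition fit gave values that were converted to Ki.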
Chain of hM3 muscarinic receptor (P20309 whole entry): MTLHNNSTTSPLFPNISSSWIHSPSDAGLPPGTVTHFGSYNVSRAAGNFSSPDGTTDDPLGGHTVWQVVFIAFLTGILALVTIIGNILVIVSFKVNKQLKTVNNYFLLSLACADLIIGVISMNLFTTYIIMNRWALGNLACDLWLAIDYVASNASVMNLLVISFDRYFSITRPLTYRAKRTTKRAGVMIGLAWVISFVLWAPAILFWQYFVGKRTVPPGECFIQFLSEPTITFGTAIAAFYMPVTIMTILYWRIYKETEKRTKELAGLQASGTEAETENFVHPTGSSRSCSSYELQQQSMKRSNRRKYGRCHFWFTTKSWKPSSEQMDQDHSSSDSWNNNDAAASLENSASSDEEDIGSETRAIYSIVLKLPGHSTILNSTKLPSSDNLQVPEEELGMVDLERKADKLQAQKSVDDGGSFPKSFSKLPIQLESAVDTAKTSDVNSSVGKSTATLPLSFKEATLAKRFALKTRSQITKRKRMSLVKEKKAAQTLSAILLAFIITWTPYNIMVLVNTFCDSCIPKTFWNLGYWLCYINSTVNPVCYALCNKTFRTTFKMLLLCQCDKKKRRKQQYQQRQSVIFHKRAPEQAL

Where [2] appears, read: rat, 100 μg by inhalation, 24 h after administration.
Where [3] appears, read: hM3 Muscarinic Receptor Binding, data rounded to nearest 0.1 nM.

Chain of hβ2 adrenergic receptor (P07550 whole entry): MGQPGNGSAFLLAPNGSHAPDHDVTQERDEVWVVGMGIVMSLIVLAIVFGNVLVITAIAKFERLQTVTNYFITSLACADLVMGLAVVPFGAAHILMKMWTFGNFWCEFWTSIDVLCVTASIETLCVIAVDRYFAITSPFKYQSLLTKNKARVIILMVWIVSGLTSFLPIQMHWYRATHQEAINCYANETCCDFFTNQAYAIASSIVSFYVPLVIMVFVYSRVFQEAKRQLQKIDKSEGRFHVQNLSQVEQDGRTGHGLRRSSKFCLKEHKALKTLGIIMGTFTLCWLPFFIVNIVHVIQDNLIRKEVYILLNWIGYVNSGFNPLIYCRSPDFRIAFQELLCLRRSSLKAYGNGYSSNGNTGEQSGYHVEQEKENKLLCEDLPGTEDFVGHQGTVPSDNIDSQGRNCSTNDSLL

Consider `CC(Cc1cccc(CC(=O)NCc2ccc(N(C)C(=O)CCN3CCC(OC(=O)Nc4ccccc4-c4ccccc4)CC3)cc2)c1)NC[C@H](O)c1ccc(O)c2[nH]c(=O)ccc12` (stereo partly drawn) [Compound I-77], for which the pEC50 – broadly, −log10 of the EC50, conventionally taken in molar units – at hβ2 adrenergic receptor is 9.00. Further, in assay [1] (setting [2]), the inhibition in vivo at 0.1 mg was over 30%. Moreover, at hM3 muscarinic receptor, the pKi (commonly the Ki on a negative log10 scale, so that one unit is a factor of ten) is 10.00.

Compound `COc1cc(CNC[C@H](O)c2ccc(O)c3[nH]c(=O)ccc23)ccc1NC(=O)CCCCN(C)C(=O)CCN1CCC(OC(=O)Nc2ccccc2-c2ccccc2)CC1` [Compound I-16] had a negative-log EC50 (pEC50) on hβ2 adrenergic receptor of 9.00. In addition, the inhibition in vivo at 0.1 mg in assay [1] (setting [2]) is over 30%. Moreover, at hM3 muscarinic receptor, the pKi was 10.00.

`CC(Cc1ccc(CNC(=O)Cc2ccc(N(C)C(=O)CCN3CCC(OC(=O)Nc4ccccc4-c4ccccc4)CC3)cc2)cc1)NC[C@H](O)c1ccc(O)c2[nH]c(=O)ccc12` (stereo partly drawn) [Compound I-66]: the pEC50 at hβ2 adrenergic receptor is 9.00. In assay [1] (setting [2]), the “Broncho. at 24 h” value is “No”. On hM3 muscarinic receptor, this compound had a pKi of 9.70.

For the compound `COc1ccc(CC(=O)NCc2ccc(N(C)C(=O)CCN3CCC(OC(=O)Nc4ccccc4-c4ccccc4)CC3)cc2)cc1C[C@H](C)NC[C@H](O)c1ccc(O)c2[nH]c(=O)ccc12` [Compound I-83], the pEC50 at hβ2 adrenergic receptor was 8.70. Moreover, in assay [1] (setting [2]), the inhibition in vivo at 0.1 mg was over 30%. On hM3 muscarinic receptor (setting [3]), this compound showed a pKi of 9.70.

`Cc1cc(NC(=O)c2cccc(N(C)C(=O)CCN3CCC(OC(=O)Nc4ccccc4-c4ccccc4)CC3)c2)c(C)cc1CNC[C@H](O)c1ccc(O)c2[nH]c(=O)ccc12` [Compound I-30]: the pEC50 at hβ2 adrenergic receptor is 9.00. For the same compound, in assay [1] (setting [2]), the “Broncho. at 24 h” value was “No”. Moreover, the pKi on hM3 muscarinic receptor is 9.70.

`COc1cc(CNC[C@H](O)c2ccc(O)c3[nH]c(=O)ccc23)ccc1NC(=O)c1cccc(N(C)C(=O)CCN2CCC(OC(=O)Nc3ccccc3-c3ccccc3)CC2)c1` [Compound I-29] had a pEC50 on hβ2 adrenergic receptor of 9.00. In addition, in assay [1] (setting [2]), the “Broncho. at 24 h” value is on record as “No”. The compound also showed a pKi at hM3 muscarinic receptor (setting [3]) of 10.00.

Consider `CC(Cc1cccc(CC(=O)Nc2cccc(N(C)C(=O)CCN3CCC(OC(=O)Nc4ccccc4-c4ccccc4)CC3)c2)c1)NC[C@H](O)c1ccc(O)c2[nH]c(=O)ccc12` (stereo partly drawn) [Compound I-52], for which, at hβ2 adrenergic receptor, the pEC50 is 9.00. The “Broncho. at 24 h” value in assay [1] (setting [2]) is recorded as “No”. For the same compound, the pKi on hM3 muscarinic receptor is 9.70.

For the compound `CC(Cc1ccc(CC(=O)NCc2ccc(N(C)C(=O)CCN3CCC(OC(=O)Nc4ccccc4-c4ccccc4)CC3)cc2)cc1)NC[C@H](O)c1ccc(O)c2[nH]c(=O)ccc12` (stereo partly drawn) [Compound I-80], on hβ2 adrenergic receptor, the pEC50 is 9.00. Also, in assay [1] (setting [2]), the “Broncho. at 24 h” value is given as “No”. Moreover, the pKi on hM3 muscarinic receptor (setting [3]) is 9.70.

Regarding `C[C@H](Cc1cccc(NC(=O)c2cccc(N(C)C(=O)CCN3CCC(OC(=O)Nc4ccccc4-c4ccccc4)CC3)c2)c1)NC[C@H](O)c1ccc(O)c2[nH]c(=O)ccc12` [Compound I-38], the pEC50 on hβ2 adrenergic receptor was 9.00. The “Broncho. at 24 h” value in assay [1] (setting [2]) is given as “No”. This compound also showed a pKi on hM3 muscarinic receptor of 9.70.

The compound `C[C@H](Cc1ccc(CNC(=O)c2cccc(N(C)C(=O)CCN3CCC(OC(=O)Nc4ccccc4-c4ccccc4)CC3)c2)cc1)NC[C@H](O)c1ccc(O)c2[nH]c(=O)ccc12` [Compound I-48] had a pEC50 at hβ2 adrenergic receptor of 9.00. In assay [1] (setting [2]), the inhibition in vivo at 0.1 mg was over 30%. The pKi on hM3 muscarinic receptor is 9.52.

`CN(CCCCC(=O)Nc1cccc(CCNC[C@H](O)c2ccc(O)c3[nH]c(=O)ccc23)c1)C(=O)CCN1CCC(OC(=O)Nc2ccccc2-c2ccccc2)CC1` [Compound I-20] gave a pEC50 on hβ2 adrenergic receptor of 9.00. Moreover, the inhibition in vivo at 0.1 mg in assay [1] (setting [2]) was over 30%. Moreover, the pKi on hM3 muscarinic receptor was 10.00.

On to `C[C@@H](Cc1cccc(CC(=O)NCCCCN(C)C(=O)CCN2CCC(OC(=O)Nc3ccccc3-c3ccccc3)CC2)c1)NC[C@H](O)c1ccc(O)c2[nH]c(=O)ccc12` [Compound I-24], for which the pEC50 at hβ2 adrenergic receptor is 9.00. Also, the inhibition in vivo at 0.1 mg in assay [1] (setting [2]) was over 30%. For the same compound, the pKi on hM3 muscarinic receptor was 10.00.

For `Cc1ccc(C(=O)Nc2ccc(CNC[C@H](O)c3ccc(O)c4[nH]c(=O)ccc34)cc2)cc1N(C)C(=O)CCN1CCC(OC(=O)Nc2ccccc2-c2ccccc2)CC1` [Compound I-26], at hβ2 adrenergic receptor, the pEC50 is 9.00. Moreover, in assay [1] (setting [2]), the inhibition in vivo at 0.1 mg is over 30%. Moreover, on hM3 muscarinic receptor, the pKi was 9.70.

`Cc1ccc(C(=O)Nc2cccc(CC(C)NC[C@H](O)c3ccc(O)c4[nH]c(=O)ccc34)c2)cc1N(C)C(=O)CCN1CCC(OC(=O)Nc2ccccc2-c2ccccc2)CC1` (stereo partly drawn) [Compound I-37] showed a pEC50 on hβ2 adrenergic receptor of 9.00. In addition, the “Broncho. at 24 h” value in assay [1] (setting [2]) was “No”. Further, the pKi on hM3 muscarinic receptor was 9.70.

In the case of `C[C@H](Cc1cccc(CNC(=O)Cc2ccc(N(C)C(=O)CCN3CCC(OC(=O)Nc4ccccc4-c4ccccc4)CC3)cc2)c1)NC[C@H](O)c1ccc(O)c2[nH]c(=O)ccc12` [Compound I-68], at hβ2 adrenergic receptor, the pEC50 is 9.00. Besides, the inhibition in vivo at 0.1 mg in assay [1] (setting [2]) is over 30%. This compound showed a pKi on hM3 muscarinic receptor of 10.00.

On hβ2 adrenergic receptor, `Cc1ccc(C(=O)NCc2cccc(CC(C)NC[C@H](O)c3ccc(O)c4[nH]c(=O)ccc34)c2)cc1N(C)C(=O)CCN1CCC(OC(=O)Nc2ccccc2-c2ccccc2)CC1` (stereo partly drawn) [Compound I-45] gave a pEC50 of 9.00. In addition, in assay [1] (setting [2]), the “Broncho. at 24 h” value is reported as “No”. The pKi at hM3 muscarinic receptor (setting [3]) is 9.70.

`CC(Cc1ccc(CNC(=O)c2cccc(N(C)C(=O)CCN3CCC(OC(=O)Nc4ccccc4-c4ccccc4)CC3)c2)cc1)NC[C@H](O)c1ccc(O)c2[nH]c(=O)ccc12` (stereo partly drawn) [Compound I-46] showed a pEC50 at hβ2 adrenergic receptor of 9.00. For the same compound, in assay [1] (setting [2]), the inhibition in vivo at 0.1 mg is over 30%. Besides, the pKi at hM3 muscarinic receptor was 10.00.

`Cc1ccc(C(=O)Nc2ccc(CC(C)NC[C@H](O)c3ccc(O)c4[nH]c(=O)ccc34)cc2)cc1N(C)C(=O)CCN1CCC(OC(=O)Nc2ccccc2-c2ccccc2)CC1` (stereo partly drawn) [Compound I-41] showed a pEC50 on hβ2 adrenergic receptor of 9.00. Moreover, the “Broncho. at 24 h” value in assay [1] (setting [2]) is on record as “No”. Moreover, the pKi at hM3 muscarinic receptor (setting [3]) was 9.52.

Consider `COc1ccc(CC(C)NC[C@H](O)c2ccc(O)c3[nH]c(=O)ccc23)cc1CC(=O)NCc1ccc(N(C)C(=O)CCN2CCC(OC(=O)Nc3ccccc3-c3ccccc3)CC2)cc1` (stereo partly drawn) [Compound I-94], for which the pEC50 on hβ2 adrenergic receptor was 9.00. Also, in assay [1] (setting [2]), the inhibition in vivo at 0.1 mg was over 30%. The compound further had a pKi on hM3 muscarinic receptor (setting [3]) of 10.00.

Take `CN(CCCCC(=O)Nc1ccc(CNC[C@H](O)c2ccc(O)c3[nH]c(=O)ccc23)cc1)C(=O)CCN1CCC(OC(=O)Nc2ccccc2-c2ccccc2)CC1` [Compound I-14, Biphenyl-2-ylcarbamic Acid 1-(2-{[4-(4-{[(R)-2-hydroxy-2-(8-hydroxy-2-oxo-1,2-dihydroquinolin-5-yl)ethylamino]methyl}phenylcarbamoyl)-butyl]methylcarbamoyl}ethyl)piperidin-4-yl Ester Ditrifluoroacetic Acid Salt]: the pEC50 at hβ2 adrenergic receptor was 9.00. Also, the inhibition in vivo at 0.1 mg in assay [1] (Rattus norvegicus, 24 h) was over 30%. Besides, the pKi on hM3 muscarinic receptor was 10.00.

In the case of `Cc1cc(CNC[C@H](O)c2ccc(O)c3[nH]c(=O)ccc23)ccc1NC(=O)c1ccc(C)c(N(C)C(=O)CCN2CCC(OC(=O)Nc3ccccc3-c3ccccc3)CC2)c1` [Compound I-28], the pEC50 on hβ2 adrenergic receptor is 9.00. Moreover, the “Broncho. at 24 h” value in assay [1] (setting [2]) is recorded as “No”. The pKi on hM3 muscarinic receptor was 9.70.

`C[C@H](Cc1cccc(CC(=O)NCc2ccc(N(C)C(=O)CCN3CCC(OC(=O)Nc4ccccc4-c4ccccc4)CC3)cc2)c1)NC[C@H](O)c1ccc(O)c2[nH]c(=O)ccc12` [Compound I-78] showed a pEC50 at hβ2 adrenergic receptor of 9.00. Moreover, the inhibition in vivo at 0.1 mg in assay [1] (setting [2]) is over 30%. At hM3 muscarinic receptor, this compound gave a pKi of 9.52.

As to `C[C@@H](Cc1cccc(CC(=O)NCCCN(C)C(=O)CCN2CCC(OC(=O)Nc3ccccc3-c3ccccc3)CC2)c1)NC[C@H](O)c1ccc(O)c2[nH]c(=O)ccc12` [Compound I-13, Biphenyl-2-ylcarbamic Acid 1-[2-({3-[2-(3-{(S)-2-[(R)-2-Hydroxy-2-(8-hydroxy-2-oxo-1,2-dihydroquinolin-5-yl)ethylamino]propyl}phenyl)acetylamino]-propyl}methylcarbamoyl)ethyl]piperidin-4-yl Ester Ditrifluoroacetic Acid Salt], at hβ2 adrenergic receptor, the pEC50 is 9.00. Moreover, in assay [1] (Rattus norvegicus, 24 h), the inhibition in vivo at 0.1 mg was over 30%. At hM3 muscarinic receptor, the pKi was 10.00.

`C[C@H](Cc1cccc(CCC(=O)NCc2ccc(N(C)C(=O)CCN3CCC(OC(=O)Nc4ccccc4-c4ccccc4)CC3)cc2)c1)NC[C@H](O)c1ccc(O)c2[nH]c(=O)ccc12` [Compound I-92] had a pEC50 on hβ2 adrenergic receptor of 9.00. In addition, the inhibition in vivo at 0.1 mg in assay [1] (setting [2]) was over 30%. The same compound had a pKi at hM3 muscarinic receptor of 9.70.

As to `Cc1cc(NC(=O)CCCCN(C)C(=O)CCN2CCC(OC(=O)Nc3ccccc3-c3ccccc3)CC2)c(C)cc1CNC[C@H](O)c1ccc(O)c2[nH]c(=O)ccc12` [Compound I-18, Biphenyl-2-ylcarbamic Acid 1-(2-{[4-(4-{[(R)-2-Hydroxy-2-(8-hydroxy-2-oxo-1,2-dihydroquinolin-5-yl)ethylamino]methyl}-2,5-dimethylphenylcarbamoyl)butyl]methylcarbamoyl}ethyl)piperidin-4-yl Ester Ditrifluoroacetic Acid Salt], the pEC50 on hβ2 adrenergic receptor is 9.00. Also, the inhibition in vivo at 0.1 mg in assay [1] (Rattus norvegicus, 24 h) was over 30%. The compound further gave a pKi on hM3 muscarinic receptor of 10.00.

`COc1cc(NC(=O)Cc2cccc(N(C)C(=O)CCN3CCC(OC(=O)Nc4ccccc4-c4ccccc4)CC3)c2)c(Cl)cc1CNC[C@H](O)c1ccc(O)c2[nH]c(=O)ccc12` [Compound I-61] gave a pEC50 on hβ2 adrenergic receptor of 9.00. In assay [1] (setting [2]), the inhibition in vivo at 0.1 mg was over 30%. The pKi at hM3 muscarinic receptor (setting [3]) was 10.00.

`C[C@@H](Cc1ccc(CCNC(=O)Cc2ccc(N(C)C(=O)CCN3CCC(OC(=O)Nc4ccccc4-c4ccccc4)CC3)cc2)cc1)NC[C@H](O)c1ccc(O)c2[nH]c(=O)ccc12` [Compound I-89]: the pEC50 at hβ2 adrenergic receptor is 9.00. Further, the inhibition in vivo at 0.1 mg in assay [1] (setting [2]) was over 30%. Also, the pKi at hM3 muscarinic receptor is 10.00.
